Experimental findings from patent publication US20240343726A1, “PYRROLOPYRIDINE-3- AND 4-CARBOXAMIDE COMPOSITIONS AND METHODS FOR CELLULAR PROLIFERATION” (The Rockefeller University, priority 2021, published 2024) are described below.

The target of the assay is LATS1 kinase (Homo sapiens (Human), UniProt O95835). Put plainly: LATS1 Biochemical HTRF Assay. The following applies: 2 mM ATP; read-out: LATS1_HTRF_2 mM ATP IC50. The method, then: LATS1 Biochemical HTRF Assay
Chain of LATS1 kinase (O95835 589-1130): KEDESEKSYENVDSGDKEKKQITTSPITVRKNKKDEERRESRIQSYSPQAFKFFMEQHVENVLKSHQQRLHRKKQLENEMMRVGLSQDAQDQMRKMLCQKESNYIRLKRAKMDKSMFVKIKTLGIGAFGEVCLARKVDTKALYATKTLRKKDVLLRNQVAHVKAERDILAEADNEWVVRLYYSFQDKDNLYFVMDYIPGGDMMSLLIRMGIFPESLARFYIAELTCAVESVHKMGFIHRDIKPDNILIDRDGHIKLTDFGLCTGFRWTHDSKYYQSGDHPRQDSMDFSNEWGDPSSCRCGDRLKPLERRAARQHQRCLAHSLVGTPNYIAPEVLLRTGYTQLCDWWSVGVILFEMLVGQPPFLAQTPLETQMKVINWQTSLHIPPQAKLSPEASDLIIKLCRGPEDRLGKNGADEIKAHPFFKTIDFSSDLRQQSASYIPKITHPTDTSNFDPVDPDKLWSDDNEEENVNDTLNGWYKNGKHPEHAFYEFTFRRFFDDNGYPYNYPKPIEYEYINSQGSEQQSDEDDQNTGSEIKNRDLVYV
MgCl2 and [1 mM] DTT. 1× Enzymatic buffer diluted from 5× Enzymatic buffer*. Add 0.5 μL of 20× compound in 100% DMSO. […] MgCl2, [1 mM] DTIT and [5 mg/mL] BSA. 5×ERR prepared from 5× Enzymatic buffer with [25 mg/mL] BSA. Mix plate on plate shaker set at 1,350 rpm for 30 seconds, then centrifuge plate at 1,000 rpm for 1 minute. Incubate for 30 minutes at 25° C. on plate shaker set to 500 rpm. […] STK Substrate 1-biotin* then add 2 μL [10 mM] ATP. Mix plate on plate shaker set at 1,350 rpm for 30 seconds, then centrifuge plate at 1,000 rpm for 1 minute. Incubate for 40 minutes at 25° C. on plate shaker set to 500 rpm. […] Streptavidin-XL665 with 1×STK Antibody-Cryptate*. Mix plate on plate shaker set at 1,350 rpm for 30 seconds, then centrifuge plate at 1,000 rpm for 1 minute. Incubate for 60 minutes at 25° C. on plate shaker set to 500 rpm, covered from light.
*(Included in Cisbio KinEASE-STK Si HTRF Kit: 62ST1PEC)
By IC50 is commonly meant the concentration needed to halve the response being measured. Consider `CNC(=O)C1CS/C(=N\C(=O)c2c[nH]c3ncccc23)N1c1ccccc1` (stereo not shown) [Example 15, (Z)-2-((1H-pyrrolo[2,3-b]pyridine-3-carbonyl)imino)-N-methyl-3-phenylthiazolidine-4-carboxamide], for which the IC50 was 7.9 nM.
The value for `CN(C)C(=O)CN1CCS/C1=N\C(=O)c1c[nH]c2ncccc12` [Example 18] was 500 nM; that for `O=C(/N=C1\SCC2CCCCN12)c1c[nH]c2ncccc12` (stereo not shown) [Example 21] was 3780 nM; that for `O=C(/N=C1\SCC2CNCCN12)c1c[nH]c2ncccc12` (stereo not shown) [Example 22, (Z)—N-(hexahydro-3H-thiazolo[3,4-a]pyrazin-3-ylidene)-1H-pyrrolo[2,3-b]pyridine-3-carboxamide] was 2130 nM.
The value for `O=C(/N=C1\SCC(=O)N1c1ccccc1)c1c[nH]c2ncccc12` [Example 23] was 224 nM.
The value for `O=C(/N=C1\SCCCN1c1ccccc1)c1ccnc2[nH]ccc12` [Example 29] was 1380 nM; that for `CC(=O)N1CCC(N2CCCS/C2=N\C(=O)c2c[nH]c3ncccc23)CC1` [Example 31] was 2750 nM; that for `CC1(C)CS/C(=N\C(=O)c2c[nH]c3ncccc23)N(C2CCCCC2)C1` [Example 33] was 4440 nM.
As for `CN(C)C(=O)CN1CCCS/C1=N\C(=O)c1c[nH]c2ncccc12` [Example 37, (Z)—N-(3-(2-(Dimethylamino)-2-oxoethyl)-1,3-thiazinan-2-ylidene)-1H-pyrrolo[2,3-b]pyridine-3-carboxamide], the IC50 came out at 1680 nM.
In the case of `O=C(/N=c1\sccc(=O)n1-c1ccccc1)c1c[nH]c2ncccc12` [Example 38], the IC50 is 650 nM.
The value for `O=C(/N=C1\SCCCCN1Cc1ccccc1)c1c[nH]c2ncccc12` [Example 39, (Z)—N-(3-benzyl-1,3-thiazepan-2-ylidene)-1H-pyrrolo[2,3-b]pyridine-3-carboxamide] was 270 nM; that for `O=C(/N=C1\SCCCCN1c1ccccc1)c1c[nH]c2ncccc12` [Example 40, (Z)—N-(3-phenyl-1,3-thiazepan-2-ylidene)-1H-pyrrolo[2,3-b]pyridine-3-carboxamide] was 220 nM.
The value for `Cc1ccccc1-n1ccs/c1=N\C(=O)c1ccnc2[nH]ccc12` [Example 42] was 33 nM; that for `O=C(/N=c1\sccn1-c1cccc(Cl)c1)c1ccnc2[nH]ccc12` [Example 43] was 1670 nM; that for `O=C(/N=c1\sccn1-c1ccc(Cl)cc1)c1ccnc2[nH]ccc12` [Example 44] was 360 nM.
Next, `COc1ccccc1-n1ccs/c1=N\C(=O)c1ccnc2[nH]ccc12` [Example 46]: 1770 nM; `CCc1ccccc1-n1ccs/c1=N\C(=O)c1ccnc2[nH]ccc12` [Example 47]: 765 nM.
As for `O=C(/N=c1\sccn1-c1ccccc1C(F)(F)F)c1ccnc2[nH]ccc12` [Example 48], the IC50 was found to be 1230 nM.
The value for `O=C(/N=c1\sccn1C1CCCCC1)c1ccnc2[nH]ccc12` [Example 49] was 505 nM; that for `O=C(/N=c1\sccn1-c1ccc(CO)cc1Cl)c1ccnc2[nH]ccc12` [Example 50] was 2060 nM.
The value for `Cc1cs/c(=N\C(=O)c2ccnc3[nH]ccc23)n1C1CCCCC1` [Example 51] was 31 nM.
The value for `Cc1cs/c(=N\C(=O)c2ccnc3[nH]ccc23)n1CC1CCCCC1` [Example 52] was 12 nM; that for `Cc1cs/c(=N\C(=O)c2ccnc3[nH]ccc23)n1Cc1ccccc1` [Example 53] was 220 nM.
On to `O=C(/N=c1\scc(CO)n1Cc1ccccc1)c1ccnc2[nH]ccc12` [Example 54, (Z)—N-(3-benzyl-4-(hydroxymethyl)thiazol-2(3H)-ylidene)-1H-pyrrolo[2,3-b]pyridine-4-carboxamide], for which the IC50 worked out at 180 nM.
Regarding `O=C(/N=c1\scc(CO)n1-c1ccccc1Cl)c1ccnc2[nH]ccc12` [Example 55, (Z)—N-(3-(2-chlorophenyl)-4-(hydroxymethyl)thiazol-2(3H)-ylidene)-1H-pyrrolo[2,3-b]pyridine-4-carboxamide], the IC50 was found to be 68 nM.
Next, `CN(C)C(=O)c1cs/c(=N\C(=O)c2ccnc3[nH]ccc23)n1-c1ccccc1Cl` [Example 56]: 2780 nM; `CN(C)CCNC(=O)c1cs/c(=N\C(=O)c2ccnc3[nH]ccc23)n1Cc1ccccc1` [Example 57, (Z)-2-((1H-pyrrolo[2,3-b]pyridine-4-carbonyl)imino)-3-benzyl-N-(2-(dimethylamino)ethyl)-2,3-dihydrothiazole-4-carboxamide]: 460 nM; `CN(C)Cc1cs/c(=N\C(=O)c2ccnc3[nH]ccc23)n1-c1ccccc1Cl` [Example 59, (Z)—N-(3-(2-chlorophenyl)-4-((dimethylamino)methyl)thiazol-2(3H)-ylidene)-1H-pyrrolo[2,3-b]pyridine-4-carboxamide]: 215 nM.
Next, `CC(=O)NCc1cs/c(=N\C(=O)c2ccnc3[nH]ccc23)n1-c1ccccc1Cl` [Example 60, (Z)—N-(4-(acetamidomethyl)-3-(2-chlorophenyl)thiazol-2(3H)-ylidene)-1H-pyrrolo[2,3-b]pyridine-4-carboxamide]: 330 nM; `Cc1cn(-c2ccccc2Cl)/c(=N/C(=O)c2ccnc3[nH]ccc23)s1` [Example 61]: 1230 nM; `O=C(/N=c1\sc(CO)cn1Cc1ccccc1)c1ccnc2[nH]ccc12` [Example 62, (Z)—N-(3-benzyl-5-(hydroxymethyl)thiazol-2(3H)-ylidene)-1H-pyrrolo[2,3-b]pyridine-4-carboxamide]: 4040 nM.
Consider `O=C(/N=c1\sc(CO)cn1-c1ccccc1Cl)c1ccnc2[nH]ccc12` [Example 63, (Z)—N-(3-(2-chlorophenyl)-5-(hydroxymethyl)thiazol-2(3H)-ylidene)-1H-pyrrolo[2,3-b]pyridine-4-carboxamide], for which the IC50 came to 850 nM.
The value for `O=C(/N=C1\SCCN1c1c(O)cccc1F)c1c[nH]c2ncccc12` [Example 70] was 0.6 nM.
In the case of `O=C(/N=C1\SCCN1c1ccc(F)cc1O)c1c[nH]c2ncccc12` [Example 72], the IC50 is 1.1 nM.
For `O=C(/N=C1\SCCN1c1cccc(F)c1O)c1c[nH]c2ncccc12` [Example 73], the IC50 was determined as 1.4 nM.
As to `O=C(/N=C1\SCCN1c1c(O)cccc1Cl)c1c[nH]c2ncccc12` [Example 74, (NZ)—N-[3-(2-chloro-6-hydroxy-phenyl)thiazolidin-2-ylidene]-1H-pyrrolo[2,3-b]pyridine-3-carboxamide], the IC50 was 1.8 nM.
Take `O=C(/N=C1\SCCN1c1cc(F)ccc1O)c1c[nH]c2ncccc12` [Example 75]: the half-inhibitory concentration (IC50) was 1.5 nM.
Next, `O=C(/N=C1\SCCN1c1ccc[nH]c1=O)c1c[nH]c2ncccc12` [Example 76]: 191 nM; `O=C(/N=C1\SCCN1c1cccc(=O)[nH]1)c1c[nH]c2ncccc12` [Example 77]: 4820 nM.
Take `O=C(/N=C1\SCCCN1c1cccc(O)c1)c1c[nH]c2ncccc12` [Example 78]: the IC50 is 18 nM.
The value for `O=C(/N=C1\SCCN1C1CCCC1O)c1c[nH]c2ncccc12` (stereo not shown) [Example 79, (NZ)—N-[3-(2-hydroxycyclopentyl)thiazolidin-2-ylidene]-1H-pyrrolo[2,3-b]pyridine-3-carboxamide] was 221 nM.
With `O=C(/N=C1\SCC(CO)N1c1ccccc1Cl)c1c[nH]c2ncccc12` (stereo not shown) [Example 80], the IC50 was 1.6 nM.
Next, `O=C(/N=C1\SCCN1C1CCC(O)C1)c1c[nH]c2ncccc12` (stereo not shown) [Example 81, (Z)—N-(3-(3-hydroxycyclopentyl)thiazolidin-2-ylidene)-1H-pyrrolo[2,3-b]pyridine-3-carboxamide]: 50 nM; `O=C(/N=C1\SCC(CO)N1Cc1ccccc1)c1c[nH]c2ncccc12` (stereo not shown) [Example 82]: 17 nM.
Next, `O=C(/N=c1\sccn1Cc1ccccc1)n1ccc2ncccc21` [Example 86]: 900 nM; `N#Cc1cc2ncccc2n1C(=O)/N=c1\sccn1-c1ccccc1` [Example 87]: 2140 nM.
